Measurements published in ChEMBL document CHEMBL5506053, “Explorations of Agonist Selectivity for the α9* nAChR with Novel Substituted Carbamoyl/Amido/Heteroaryl Dialkylpiperazinium Salts and Their Therapeutic Implications in Pain and Inflammation” (J Med Chem, 2024).
Active and inactive are the calls of the source. The calls are words filed in the database; no cut-off is given here.

Legend:
Oocyte [1] = test: (§1) Inhibition of acetylcholine induced response in mouse muscle alpha1beta1epsilondelta nAChR expressed in xenopus laevis oocytes assessed as fold change at 30 uM preincubated with 3 uM acetylcholine followed by compound administration for 12 sec and measured 181 sec post washout by two-electrode voltage-clamp electrophysiology method relative to acetylcholine alone; format: cell-based
[2] = target: T1, Neuronal acetylcholine receptor subunit alpha-9 (Homo sapiens, UniProt Q9UGM1); test: (§2) Agonist activity at human alpha9 nAChR expressed as xenopus laevis oocytes assessed as increase in receptor desensitization by measuring fold change in maximum response (Imax) measured after 120 secs by two-electrode voltage-clamp electrophysiology method relative to acetylcholine; format: cell-based; settings: Oocyte, filed as agonist, time 120.0 sec
[3] = target: T2, Neuronal acetylcholine receptor subunit alpha-7 (Homo sapiens, UniProt P36544); test: Partial agonist activity at human alpha7 nAChR expressed as xenopus laevis oocytes assessed as increase in receptor desensitization by measuring fold change in maximum response (Imax) measured after 120 secs by two-electrode voltage-clamp electrophysiology method relative to acetylcholine; format: cell-based; settings: Oocyte, filed as partial agonist, time 120.0 sec
[4] = target: T3, Neuronal acetylcholine receptor; alpha3/beta4 (Homo sapiens) (UniProt P30926+P32297); test: Agonist activity at human alpha3beta4 nAChR expressed in xenopus laevis oocytes at 100 uM measured after 120 secs by two-electrode voltage-clamp electrophysiology method relative to control; format: cell-based; settings: Oocyte, time 120.0 sec
[5] = target: T4, Neuronal acetylcholine receptor; alpha9/alpha10 (Homo sapiens) (UniProt Q9UGM1+Q9GZZ6); test: Partial agonist activity at human alpha9alpha10 nAChR expressed as xenopus laevis oocytes assessed as increase in receptor desensitization by measuring fold change in maximum response (Imax) measured after 120 secs by two-electrode voltage-clamp electrophysiology method relative to acetylcholine; format: cell-based; settings: Oocyte, filed as partial agonist, time 120.0 sec
Oocyte [6] = test: Agonist activity at mouse muscle alpha1beta1epsilondelta nAChR expressed in xenopus laevis oocytes at 30 uM measured after 120 secs by two-electrode voltage-clamp electrophysiology method relative to control; format: cell-based; settings: time 120.0 sec
[7] = target: T3, Neuronal acetylcholine receptor; alpha3/beta4 (Homo sapiens); test: as §1, with “human alpha3beta4” for “mouse muscle alpha1beta1epsilondelta”, “100” for “30”; format: cell-based; settings: Oocyte
[8] = target: T5, Neuronal acetylcholine receptor; alpha4/beta2 (Homo sapiens) (UniProt P17787+P43681); test: as §1, with “human alpha4beta2” for “mouse muscle alpha1beta1epsilondelta”; format: cell-based; settings: Oocyte
[9] = target: T5, Neuronal acetylcholine receptor; alpha4/beta2 (Homo sapiens); test: Agonist activity at human alpha4beta2 nAChR expressed in xenopus laevis oocytes at 30 uM measured after 120 secs by two-electrode voltage-clamp electrophysiology method relative to control; format: cell-based; settings: Oocyte, time 120.0 sec
[10] = target: T2, Neuronal acetylcholine receptor subunit alpha-7; test: as §2, with “alpha7” for “alpha9”, “peak current” for “maximum”, “at 30 uM incubated for” for “(Imax) measured after”, “secs presence of PNU-120596” for “secs”; format: cell-based; settings: Oocyte, filed as agonist, time 120.0 sec
[11] = target: Neuronal acetylcholine receptor; alpha9/alpha10 (Homo sapiens, UniProt Q9GZZ6+Q9UGM1); test: Agonist activity at alpha9alpha10 nAChR (unknown origin); format: protein-complex assay
[12] = target: T4, Neuronal acetylcholine receptor; alpha9/alpha10 (Homo sapiens); test: Agonist activity at alpha9alpha10 nAChR (unknown origin) assessed as fold change in maximum response (Imax) relative to acetylcholine; format: protein-complex assay; settings: filed as agonist
[13] = target: T1, Neuronal acetylcholine receptor subunit alpha-9; test: Agonist activity at alpha9 nAChR (unknown origin)
[14] = target: T2, Neuronal acetylcholine receptor subunit alpha-7; test: Agonist activity at human alpha7 nAChR expressed as xenopus laevis oocytes assessed as increase in receptor desensitization by measuring fold change in maximum response (Imax) measured after 120 secs by two-electrode voltage-clamp electrophysiology method relative to acetylcholine; format: cell-based; settings: Oocyte, filed as agonist, time 120.0 sec
[15] = human, caco-2, 2 h
Description: Apparent permeability across apical to basolateral side in human Caco-2 cells at 5 ug/ml measured after 2 hrs by UPLC-MS/MS analysis

[16] = target: T4, Neuronal acetylcholine receptor; alpha9/alpha10 (Homo sapiens); test: Agonist activity at human alpha9alpha10 nAChR expressed as xenopus laevis oocytes assessed as increase in receptor desensitization by measuring fold change in maximum response (Imax) measured after 120 secs by two-electrode voltage-clamp electrophysiology method relative to acetylcholine; format: cell-based; settings: Oocyte, filed as agonist, time 120.0 sec
[17] = target: T1, Neuronal acetylcholine receptor subunit alpha-9; test: Partial agonist activity at human alpha9 nAChR expressed as xenopus laevis oocytes assessed as increase in receptor desensitization by measuring fold change in maximum response (Imax) measured after 120 secs by two-electrode voltage-clamp electrophysiology method relative to acetylcholine; format: cell-based; settings: Oocyte, filed as partial agonist, time 120.0 sec
cells = settings: Homo sapiens, THP-1
Description: Inhibition of ATP-mediated IL-1beta release in LPS primed BzATP induced monocytic human THP-1 cells primed with LPS for 5 hrs followed by BzATP and compound addition for 40 mins by ELISA

THP-1 [18] = test: Cytotoxicity against monocytic human THP-1 cells assessed as effect on lactate dehydrogenase activity in supernatant; format: toxicity, cell-based
THP-1 [19] = test: Induction of IL-1beta release in LPS primed monocytic human THP-1 cells at 10 uM primed with LPS for 5 hrs followed by compound addition and further incubated for 40 mins by ELISA; format: functional, cell-based
[20] = target: T2, Neuronal acetylcholine receptor subunit alpha-7; test: Agonist activity at alpha7 nAChR (unknown origin)
PBMC [21] = test: Inhibition of ATP-mediated IL-1beta release in LPS primed BzATP induced human PBMC cells at 100 fM primed with LPS for 3 hrs followed by BzATP and compound addition for 30 mins by ELISA; format: functional, cell-based
PBMC [22] = test: Inhibition of ATP-mediated IL-1beta release in LPS primed BzATP induced human PBMC cells at 100 uM primed with LPS for 3 hrs followed by BzATP and compound addition for 30 mins by ELISA; format: functional, cell-based
[23] = target: T2, Neuronal acetylcholine receptor subunit alpha-7; test: Ratio for agonist activity at human alpha7 nAChR expressed as xenopus laevis oocytes assessed as increase in receptor desensitization by measuring fold change in peak current response to agonist activity at human alpha7 nAChR expressed as xenopus laevis oocytes assessed as increase in receptor desensitization by measuring fold change in peak current response in presence of PNU-120596; format: cell-based; settings: Oocyte
[24] = Metabolic stability in pooled BALB/c mouse plasma assessed as half life at 1 uM measured after 0 to 120 mins by UPLC-MS/MS analysis; format: ADME, cell-free; settings: time 0-120 min
[25] = Selectivity ratio for agonist activity at alpha7 nAChR (unknown origin) to agonist activity at alpha9 nAChR (unknown origin)

T1 sequence (Q9UGM1 whole entry): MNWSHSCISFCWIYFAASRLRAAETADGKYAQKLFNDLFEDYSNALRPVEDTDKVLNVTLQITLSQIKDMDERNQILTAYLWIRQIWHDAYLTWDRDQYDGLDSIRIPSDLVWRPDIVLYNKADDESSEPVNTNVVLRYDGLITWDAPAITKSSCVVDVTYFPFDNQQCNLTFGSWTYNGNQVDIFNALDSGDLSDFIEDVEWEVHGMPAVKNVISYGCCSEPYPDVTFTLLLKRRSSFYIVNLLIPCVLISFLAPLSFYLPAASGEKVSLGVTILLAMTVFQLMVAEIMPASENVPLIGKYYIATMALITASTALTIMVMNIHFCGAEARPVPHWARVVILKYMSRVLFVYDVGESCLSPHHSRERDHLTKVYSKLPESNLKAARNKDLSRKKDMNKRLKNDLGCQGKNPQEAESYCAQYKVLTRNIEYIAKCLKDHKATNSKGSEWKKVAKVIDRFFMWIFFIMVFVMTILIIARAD
T2 sequence (P36544 whole entry): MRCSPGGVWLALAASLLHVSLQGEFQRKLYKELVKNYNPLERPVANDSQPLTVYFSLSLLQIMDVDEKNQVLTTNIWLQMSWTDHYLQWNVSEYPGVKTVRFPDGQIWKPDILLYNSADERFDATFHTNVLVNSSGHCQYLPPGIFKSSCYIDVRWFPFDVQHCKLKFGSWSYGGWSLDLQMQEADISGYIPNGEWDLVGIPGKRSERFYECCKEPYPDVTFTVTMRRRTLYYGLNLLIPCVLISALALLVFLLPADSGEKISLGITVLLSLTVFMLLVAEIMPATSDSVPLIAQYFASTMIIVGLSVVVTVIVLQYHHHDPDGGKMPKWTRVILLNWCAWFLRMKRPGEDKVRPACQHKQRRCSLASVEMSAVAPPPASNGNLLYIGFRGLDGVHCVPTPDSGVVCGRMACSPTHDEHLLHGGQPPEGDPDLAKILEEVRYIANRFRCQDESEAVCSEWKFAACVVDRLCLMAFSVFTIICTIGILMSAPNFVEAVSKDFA
Sequence of Neuronal acetylcholine receptor; alpha9/alpha10 (Q9UGM1 whole entry): as the sequence (Q9UGM1 whole entry) above
Sequence of Neuronal acetylcholine receptor; alpha9/alpha10 (Q9GZZ6 whole entry): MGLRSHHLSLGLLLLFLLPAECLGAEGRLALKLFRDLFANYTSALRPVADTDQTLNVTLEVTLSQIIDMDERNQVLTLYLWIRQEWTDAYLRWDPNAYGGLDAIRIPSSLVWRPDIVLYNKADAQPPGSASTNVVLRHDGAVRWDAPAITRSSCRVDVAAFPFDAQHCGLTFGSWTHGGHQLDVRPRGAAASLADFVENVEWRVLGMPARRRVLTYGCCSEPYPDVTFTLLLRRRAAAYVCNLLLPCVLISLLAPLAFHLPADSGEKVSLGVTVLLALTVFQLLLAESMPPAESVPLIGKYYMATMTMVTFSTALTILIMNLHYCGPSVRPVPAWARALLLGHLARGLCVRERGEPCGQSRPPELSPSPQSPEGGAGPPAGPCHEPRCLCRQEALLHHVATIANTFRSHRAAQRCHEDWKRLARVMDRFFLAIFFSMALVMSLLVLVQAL

| SMILES | fold change (FC) (Oocyte [1]) | fold change (FC) [2] | Activity [4] | Activity (Oocyte [6]) | fold change (FC) [7] | fold change (FC) [8] | Activity [9] | fold change (FC) [10] | fold change (FC) [14] | fold change (FC) [16] | also measured |
| --- | --- | --- | --- | --- | --- | --- | --- | --- | --- | --- | --- |
| CC[N+]1(CC)CCN(c2ccc(-n3cccn3)cc2)CC1 | 0.59 | 1.01 | < 1% | < 1% | 0.736 | 0.913 | < 1% | 0.17 | – | – | fold change (FC) [3]: 0.088; fold change (FC) [5]: 0.59 |
| CC[N+]1(CC)CCN(c2ccc(C#N)cc2)CC1 | – | – | – | – | – | – | – | – | – | – | EC50 [11]: 2570 nM; fold change (FC) [12]: 0.94; EC50 [13]: 368 nM |
| CCCNC(=O)c1ccc(N2CC[N+](CC)(CC)CC2)cc1 | 0.709 | 1.13 | < 1% | < 1% | 0.65 | 0.946 | < 1% | 0.19 | 0.38 | – | fold change (FC) [5]: 0.79 |
| C[C@H]1O[C@@H](O[C@H]2[C@@H](O)C[C@H](O[C@H]3[C@@H](O)C[C@H](O[C@H]4CC[C@@]5(C)[C@H](CC[C@@H]6[C@@H]5C[C@@H](O)[C@]5(C)[C@@H](C7=CC(=O)OC7)CC[C@]65O)C4)O[C@@H]3C)O[C@@H]2C)C[C@H](O)[C@@H]1O [DIGOXIN] | – | – | – | – | – | – | – | – | – | – | Papp [15]: 5.4 10^-6 cm/s |
| Cc1cccc(NC(=O)c2ccc(N3CC[N+](C)(C)CC3)cc2)n1 | 0.709 | – | < 1% | < 1% | 0.838 | 0.912 | < 1% | 0.16 | 0.57 | 0.89 | fold change (FC) [17]: 0.51 |
| CC[N+]1(CC)CCN(c2ccc(C(=O)Nc3ccccn3)cc2)CC1 | 0.506 | 1.18 | < 1% | < 1% | 0.789 | 0.697 | < 1% | 0.12 | 0.46 | 0.94 | – |
| CC[N+]1(CC)CCN(c2ccc(C(=O)Nc3cccc(C)c3)cc2)CC1 | 0.555 | 1.25 | < 1% | < 1% | 1.04 | 0.807 | < 1% | 0.17 | – | 1.12 | fold change (FC) [3]: 0.6 |
| CC[N+]1(CC)CCN(c2ccc(-c3ncco3)cc2)CC1 | 0.353 | 1.29 | < 1% | < 1% | 0.507 | 0.823 | < 1% | 0.05 | – | 0.83 | fold change (FC) [3]: 0.12 |
| CC(C)NCC(O)COc1cccc2ccccc12 (stereo unspecified) [PROPRANOLOL] | – | – | – | – | – | – | – | – | – | – | Papp [15]: 20 10^-6 cm/s |
| CC[N+]1(CC)CCN(c2ccc(C(=O)Nc3cccc(C)n3)cc2)CC1.[I-] | – | – | – | – | – | – | – | – | – | – | IC50 (cells): 14000 nM; Activity (THP-1 [18]): Non-Toxic; EC50 [11]: 980 nM; Activity (THP-1 [19]): inactive; EC50 [13]: 660 nM; EC50 [20]: 6400 nM; inhibition (PBMC [21]): Active; inhibition (PBMC [22]): inactive |
| CC(=O)OCC[N+](C)(C)C [ACETYLCHOLINE] | – | – | – | – | – | – | – | – | – | – | Activity (THP-1 [18]): Non-Toxic; Activity (THP-1 [19]): inactive |
| CC[N+]1(CC)CCN(c2ccc(NC(=O)c3cccc(C)n3)cc2)CC1 | 0.38 | 1.24 | < 1% | < 1% | 0.415 | 1.07 | < 1% | 31.8 | 0.14 | – | Ratio [23]: 227; fold change (FC) [5]: 0.53 |
| CCN(CC)CCOC(=O)c1ccc(N)cc1 [PROCAINE] | – | – | – | – | – | – | – | – | – | – | t1/2 [24]: < 5 min |
| CC[N+]1(CC)CCN(c2ccc(-n3cccc3)cc2)CC1 | 0.691 | – | < 1% | < 1% | 0.387 | 0.709 | < 1% | 0.08 | 0.041 | 0.17 | fold change (FC) [17]: 0.27 |
| CC[N+]1(CC)CCN(c2ccc(C(=O)N3CCCC3)cc2)CC1 | 0.541 | – | < 1% | < 1% | 0.849 | 0.919 | < 1% | 0.01 | 0.06 | 0.56 | fold change (FC) [17]: 0.69 |
| CC[N+]1(C)CCN(c2ccc(NC(C)=O)cc2)CC1 | 0.409 | 0.75 | < 1% | < 1% | 0.798 | 1.19 | < 1% | 0.15 | – | – | fold change (FC) [5]: 3.3 |
| CC[N+]1(CC)CCN(c2ccc(C(N)=O)cc2)CC1 | – | 0.8 | – | – | – | – | – | 0.18 | – | 1.19 | fold change (FC) [3]: 0.34; Selectivity ratio [25]: 66 |
